# Laboratory results as given in US20240025884A1 (Dong-A ST Co., Ltd., priority 2022, published 2024).
# Target: GCN2 (Homo sapiens (Human), UniProt Q9P2K8)
# Experiment: GCN2 Biochemical Assay (TR-FRET, GFP-eIF2S1 substrate phosphorylation)
# Conditions: read-out: IC50 (GCN2 Inhibitory Activity)
# Procedure, shortened: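 In-house GCN2 (1.6 nM 2× stock) phosphorylates GFP-eIF2S1 (50 nM 2× stock) with ATP (0.2 mM 2× stock) and tRNA, pH 7.5, 70 min at room temperature; 10-point 3.16-fold compound series. TR-FRET detection with Tb-anti-phospho antibody, 2–3 h, Ex 340/Em 490/520 nm; artifact plate spiked with phospho-substrate.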
# GCN2, sequence (Q9P2K8 whole entry): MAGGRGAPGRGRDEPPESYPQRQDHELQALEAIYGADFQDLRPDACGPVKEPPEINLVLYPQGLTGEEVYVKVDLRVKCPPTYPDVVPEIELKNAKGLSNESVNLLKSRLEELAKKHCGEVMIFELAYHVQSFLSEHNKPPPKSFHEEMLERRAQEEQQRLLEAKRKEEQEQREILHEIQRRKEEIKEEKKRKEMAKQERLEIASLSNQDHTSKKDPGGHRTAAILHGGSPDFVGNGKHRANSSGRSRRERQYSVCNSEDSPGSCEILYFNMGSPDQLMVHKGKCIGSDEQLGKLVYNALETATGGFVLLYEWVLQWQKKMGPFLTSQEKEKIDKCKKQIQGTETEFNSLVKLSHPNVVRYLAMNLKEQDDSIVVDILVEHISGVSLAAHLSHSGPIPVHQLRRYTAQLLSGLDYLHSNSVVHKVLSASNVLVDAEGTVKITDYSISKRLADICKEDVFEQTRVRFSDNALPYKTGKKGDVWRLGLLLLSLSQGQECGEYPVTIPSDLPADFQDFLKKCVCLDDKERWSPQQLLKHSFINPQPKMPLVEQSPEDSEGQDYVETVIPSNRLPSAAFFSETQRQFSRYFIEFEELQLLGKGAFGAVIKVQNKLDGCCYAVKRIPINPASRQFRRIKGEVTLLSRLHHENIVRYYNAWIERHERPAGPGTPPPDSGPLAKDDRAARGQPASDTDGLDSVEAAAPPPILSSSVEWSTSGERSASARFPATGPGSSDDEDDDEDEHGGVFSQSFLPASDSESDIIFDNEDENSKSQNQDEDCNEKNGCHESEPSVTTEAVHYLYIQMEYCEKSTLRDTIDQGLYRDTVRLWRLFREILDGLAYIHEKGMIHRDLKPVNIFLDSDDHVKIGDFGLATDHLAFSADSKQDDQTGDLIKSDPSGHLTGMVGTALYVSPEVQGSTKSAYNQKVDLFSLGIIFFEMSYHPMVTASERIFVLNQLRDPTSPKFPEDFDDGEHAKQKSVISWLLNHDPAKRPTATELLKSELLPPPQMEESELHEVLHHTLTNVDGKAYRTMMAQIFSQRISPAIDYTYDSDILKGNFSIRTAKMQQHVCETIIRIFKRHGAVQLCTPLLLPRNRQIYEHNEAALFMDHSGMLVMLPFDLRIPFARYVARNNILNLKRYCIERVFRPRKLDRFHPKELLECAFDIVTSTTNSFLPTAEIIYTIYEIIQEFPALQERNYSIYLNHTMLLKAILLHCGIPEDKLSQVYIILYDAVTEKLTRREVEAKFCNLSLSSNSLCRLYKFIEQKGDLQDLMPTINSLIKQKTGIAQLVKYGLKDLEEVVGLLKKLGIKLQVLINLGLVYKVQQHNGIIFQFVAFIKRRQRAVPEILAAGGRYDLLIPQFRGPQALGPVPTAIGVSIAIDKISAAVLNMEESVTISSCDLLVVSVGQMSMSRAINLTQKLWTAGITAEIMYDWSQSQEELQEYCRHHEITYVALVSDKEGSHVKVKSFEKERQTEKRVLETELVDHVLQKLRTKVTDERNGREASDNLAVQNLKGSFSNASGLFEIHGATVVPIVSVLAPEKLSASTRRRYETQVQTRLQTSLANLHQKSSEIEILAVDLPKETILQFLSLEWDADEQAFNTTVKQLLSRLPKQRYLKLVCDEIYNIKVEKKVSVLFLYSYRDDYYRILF
row,SMILES,IC50
1,"Cc1cnc(Nc2cc(C)n(C)n2)nc1-c1c[nH]c2c(NC(=O)CN3CC[C@H](Oc4cnc(N(C)C)nc4)C3)cccc12 [Example 240, (S)-N-(3-(2-((1,5-dimethyl-1H-pyrazol-3-yl)amino)-5-methylpyrimidin-4-yl)-1H-indol-7-yl)-2-(3-((2-(dimethylamino)pyrimidin-5-yl)oxy)pyrrolidin-1-yl)acetamide]",10 to 100 nM
2,"Cc1cnc(Nc2cc(C)n(C)n2)nc1-c1c[nH]c2c(NC(=O)CN3CC[C@H](Oc4cnc(N5CCOCC5)nc4)C3)cccc12 [Example 241, (S)-N-(3-(2-((1,5-dimethyl-1H-pyrazol-3-yl)amino)-5-methylpyrimidin-4-yl)-1H-indol-7-yl)-2-(3-((2-morpholinopyrimidin-5-yl)oxy)pyrrolidin-1-yl)acetamide]",10 to 100 nM
3,"Cc1cnc(Nc2cc(C)n(C)n2)nc1-c1c[nH]c2c(NC(=O)CN3CC[C@H](Oc4cnc(N5CCN(C)CC5)nc4)C3)cccc12 [Example 242, (S)-N-(3-(2-((1,5-dimethyl-1H-pyrazol-3-yl)amino)-5-methylpyrimidin-4-yl)-1H-indol-7-yl)-2-(3-((2-(4-methylpiperazin-1-yl)pyrimidin-5-yl)oxy)pyrrolidin-1-yl)acetamide]",10 to 100 nM
4,"Cc1cnc(Nc2cc(C)n(C)n2)nc1-c1c[nH]c2c(NC(=O)CN3CC[C@H](Oc4cncc(NC5CC5)n4)C3)cccc12 [Example 243, (S)-2-(3-((6-(cyclopropylamino)pyrazin-2-yl)oxy)pyrrolidin-1-yl)-N-(3-(2-((1,5-dimethyl-1H-pyrazol-3-yl)amino)-5-methylpyrimidin-4-yl)-1H-indol-7-yl)acetamide]",10 to 100 nM
5,"CCNc1cncc(O[C@H]2CCN(CC(=O)Nc3cccc4c(-c5nc(Nc6cc(C)n(C)n6)ncc5C)c[nH]c34)C2)n1 [Example 244, (S)-N-(3-(2-((1,5-dimethyl-1H-pyrazol-3-yl)amino)-5-methylpyrimidin-4-yl)-1H-indol-7-yl)-2-(3-((6-(ethylamino)pyrazin-2-yl)oxy)pyrrolidin-1-yl)acetamide]",10 to 100 nM
6,"CCCNc1cncc(O[C@H]2CCN(CC(=O)Nc3cccc4c(-c5nc(Nc6cc(C)n(C)n6)ncc5C)c[nH]c34)C2)n1 [Example 245, (S)-N-(3-(2-((1,5-dimethyl-1H-pyrazol-3-yl)amino)-5-methylpyrimidin-4-yl)-1H-indol-7-yl)-2-(3-((6-(propylamino)pyrazin-2-yl)oxy)pyrrolidin-1-yl)acetamide]",10 to 100 nM
7,"Cc1cnc(Nc2cc(C)n(C)n2)nc1-c1c[nH]c2c(NC(=O)CN3CC[C@H](Oc4cncc(NCCO)n4)C3)cccc12 [Example 246, (S)-N-(3-(2-((1,5-dimethyl-1H-pyrazol-3-yl)amino)-5-methylpyrimidin-4-yl)-1H-indol-7-yl)-2-(3-((6-((2-hydroxyethyl)amino)pyrazin-2-yl)oxy)pyrrolidin-1-yl)acetamide]",10 to 100 nM
8,"Cc1cnc(Nc2cc(C)n(C)n2)nc1-c1c[nH]c2c(NC(=O)CN3CC[C@H](Oc4cncc(NCCN(C)C)n4)C3)cccc12 [Example 247, (S)-N-(3-(2-((1,5-dimethyl-1H-pyrazol-3-yl)amino)-5-methylpyrimidin-4-yl)-1H-indol-7-yl)-2-(3-((6-((2-(dimethylamino)ethyl)amino)pyrazin-2-yl)oxy)pyrrolidin-1-yl)acetamide]",< 10 nM
9,"Cc1cnc(Nc2cc(C)n(C)n2)nc1-c1c[nH]c2c(NC(=O)CN3CC[C@H](Oc4cc(-c5ccccc5)ncn4)C3)cccc12 [Example 248, (S)-N-(3-(2-((1,5-dimethyl-1H-pyrazol-3-yl)amino)-5-methylpyrimidin-4-yl)-1H-indol-7-yl)-2-(3-((6-phenylpyrimidin-4-yl)oxy)pyrrolidin-1-yl)acetamide]",10 to 100 nM
10,"Cc1cnc(Nc2cc(C)n(C)n2)nc1-c1c[nH]c2c(NC(=O)CN3CC[C@H](Oc4cc(-c5cnn(C)c5)ncn4)C3)cccc12 [Example 249, (S)-N-(3-(2-((1,5-dimethyl-1H-pyrazol-3-yl)amino)-5-methylpyrimidin-4-yl)-1H-indol-7-yl)-2-(3-((6-(1-methyl-1H-pyrazol-4-yl)pyrimidin-4-yl)oxy)pyrrolidin-1-yl)acetamide]",< 10 nM
11,Cc1cnc(Nc2cc(C)n(C)n2)nc1-c1c[nH]c2c(NC(=O)CN3CC[C@H](Oc4cc(C5=CCC(C)(C)CC5)ncn4)C3)cccc12 [Example 250],100 to 1000 nM
12,"Cc1cnc(Nc2cc(C)n(C)n2)nc1-c1c[nH]c2c(NC(=O)CN3CC[C@H](Oc4cc(C5=CCOCC5)ncn4)C3)cccc12 [Example 251, (S)-2-(3-((6-(3,6-dihydro-2H-pyran-4-yl)pyrimidin-4-yl)oxy)pyrrolidin-1-yl)-N-(3-(2-((1,5-dimethyl-1H-pyrazol-3-yl)amino)-5-methylpyrimidin-4-yl)-1H-indol-7-yl)acetamide]",10 to 100 nM
13,"Cc1cnc(Nc2cc(C)n(C)n2)nc1-c1c[nH]c2c(NC(=O)CN3CC[C@H](Oc4nccc(C5=CCC(C)(C)CC5)n4)C3)cccc12 [Example 252, (S)-N-(3-(2-((1,5-dimethyl-1H-pyrazol-3-yl)amino)-5-methylpyrimidin-4-yl)-1H-indol-7-yl)-2-(3-((4-(4,4-dimethylcyclohex-1-en-1-yl)pyrimidin-2-yl)oxy)pyrrolidin-1-yl)acetamide]",10 to 100 nM
14,"Cc1cnc(Nc2cc(C)n(C)n2)nc1-c1c[nH]c2c(NC(=O)CN3CC[C@H](Oc4nccc(C5=CCOCC5)n4)C3)cccc12 [Example 253, (S)-2-(3-((4-(3,6-dihydro-2H-pyran-4-yl)pyrimidin-2-yl)oxy)pyrrolidin-1-yl)-N-(3-(2-((1,5-dimethyl-1H-pyrazol-3-yl)amino)-5-methylpyrimidin-4-yl)-1H-indol-7-yl)acetamide]",10 to 100 nM
15,"Cc1cnc(Nc2cc(C)n(C)n2)nc1-c1c[nH]c2c(NC(=O)CN3CC[C@H](Oc4nccc(-c5ccccc5)n4)C3)cccc12 [Example 254, (S)-N-(3-(2-((1,5-dimethyl-1H-pyrazol-3-yl)amino)-5-methylpyrimidin-4-yl)-1H-indol-7-yl)-2-(3-((4-phenylpyrimidin-2-yl)oxy)pyrrolidin-1-yl)acetamide]",10 to 100 nM
16,"Cc1cnc(Nc2cc(C)n(C)n2)nc1-c1c[nH]c2c(NC(=O)CN3CC[C@H](Oc4ncc(-c5cccnc5)cn4)C3)cccc12 [Example 255, (S)-N-(3-(2-((1,5-dimethyl-1H-pyrazol-3-yl)amino)-5-methylpyrimidin-4-yl)-1H-indol-7-yl)-2-(3-((5-(pyridin-3-yl)pyrimidin-2-yl)oxy)pyrrolidin-1-yl)acetamide]",10 to 100 nM
17,"Cc1cnc(Nc2cc(C)n(C)n2)nc1-c1c[nH]c2c(NC(=O)CN3CC[C@H](Oc4ncc(-c5ccncc5)cn4)C3)cccc12 [Example 256, (S)-N-(3-(2-((1,5-dimethyl-1H-pyrazol-3-yl)amino)-5-methylpyrimidin-4-yl)-1H-indol-7-yl)-2-(3-((5-(pyridin-4-yl)pyrimidin-2-yl)oxy)pyrrolidin-1-yl)acetamide]",10 to 100 nM
18,"Cc1cnc(Nc2cc(C)n(C)n2)nc1-c1c[nH]c2c(NC(=O)CN3CC[C@H](Oc4cnc(-c5cccnc5)nc4)C3)cccc12 [Example 258, (S)-N-(3-(2-((1,5-dimethyl-1H-pyrazol-3-yl)amino)-5-methylpyrimidin-4-yl)-1H-indol-7-yl)-2-(3-((2-(pyridin-3-yl)pyrimidin-5-yl)oxy)pyrrolidin-1-yl)acetamide]",10 to 100 nM
19,"Cc1cnc(Nc2cc(C)n(C)n2)nc1-c1c[nH]c2c(NC(=O)CN3CC[C@H](Oc4cnc(-c5ccncc5)nc4)C3)cccc12 [Example 259, (S)-N-(3-(2-((1,5-dimethyl-1H-pyrazol-3-yl)amino)-5-methylpyrimidin-4-yl)-1H-indol-7-yl)-2-(3-((2-(pyridin-4-yl)pyrimidin-5-yl)oxy)pyrrolidin-1-yl)acetamide]",10 to 100 nM
20,"Cc1cnc(Nc2cc(C)n(C)n2)nc1-c1c[nH]c2c(N3C(=O)c4ccccc4C3=O)cccc12 [Example 260, 2-(3-(2-((1,5-dimethyl-1H-pyrazol-3-yl)amino)-5-methylpyrimidin-4-yl)-1H-indol-7-yl)isoindoline-1,3-dione]",< 10 nM
21,"Cc1cnc(Nc2cc(C)n(C)n2)nc1-c1c[nH]c2c(N3C(=O)c4cccc(F)c4C3=O)cccc12 [Example 261, 2-(3-(2-((1,5-dimethyl-1H-pyrazol-3-yl)amino)-5-methylpyrimidin-4-yl)-1H-indol-7-yl)-4-fluoroisoindoline-1,3-dione]",< 10 nM
22,"Cc1cnc(Nc2cc(C)n(C)n2)nc1-c1c[nH]c2c(N3C(=O)c4cccc(Br)c4C3=O)cccc12 [Example 262, 4-bromo-2-(3-(2-((1,5-dimethyl-1H-pyrazol-3-yl)amino)-5-methylpyrimidin-4-yl)-1H-indol-7-yl)isoindoline-1,3-dione]",< 10 nM
23,"Cc1cnc(Nc2cc(C)n(C)n2)nc1-c1c[nH]c2c(N3C(=O)c4cccc(O)c4C3=O)cccc12 [Example 263, 2-(3-(2-((1,5-dimethyl-1H-pyrazol-3-yl)amino)-5-methylpyrimidin-4-yl)-1H-indol-7-yl)-4-hydroxyisoindoline-1,3-dione]",< 10 nM
24,"Cc1cnc(Nc2cc(C)n(C)n2)nc1-c1c[nH]c2c(N3C(=O)c4ccc([N+](=O)[O-])cc4C3=O)cccc12 [Example 264, 2-(3-(2-((1,5-dimethyl-1H-pyrazol-3-yl)amino)-5-methylpyrimidin-4-yl)-1H-indol-7-yl)-5-nitroisoindoline-1,3-dione]",< 10 nM
25,"Cc1cnc(Nc2cc(C)n(C)n2)nc1-c1c[nH]c2c(N3C(=O)c4cccnc4C3=O)cccc12 [Example 265, 6-(3-(2-((1,5-dimethyl-1H-pyrazol-3-yl)amino)-5-methylpyrimidin-4-yl)-1H-indol-7-yl)-5H-pyrrolo[3,4-b]pyridine-5,7(6H)-dione]",< 10 nM
26,"Cc1cnc(Nc2cc(C)n(C)n2)nc1-c1c[nH]c2c(N3Cc4c(Br)cccc4C3=O)cccc12 [Example 266, 4-bromo-2-(3-(2-((1,5-dimethyl-1H-pyrazol-3-yl)amino)-5-methylpyrimidin-4-yl)-1H-indol-7-yl)isoindolin-1-one]",< 10 nM
